Reference: patent US7511133B2, “Adenosine A3 receptor agonists” (King Pharmaceuticals Research and Development, Inc., priority 2003, dated 2009)
pKi: −log10 of the molar value. Read-outs that look alike come from different tables or passages of the source.

How the values were obtained:
[1] = biological target: T1, human A2A adenosine receptors (Homo sapiens, UniProt P29274); test: Displacement of [^3H]CGS21680 binding, human A2A adenosine receptors in CHO cells (agonist radioligand); conditions: read-out: Ki(A2A). Displacement of [^3H]CGS21680 binding to human A2A adenosine receptors exp. in CHO cells.
T1 construct: expressed in transfected cells; host or cells: CHO cells
T1 sequence (P29274 whole entry): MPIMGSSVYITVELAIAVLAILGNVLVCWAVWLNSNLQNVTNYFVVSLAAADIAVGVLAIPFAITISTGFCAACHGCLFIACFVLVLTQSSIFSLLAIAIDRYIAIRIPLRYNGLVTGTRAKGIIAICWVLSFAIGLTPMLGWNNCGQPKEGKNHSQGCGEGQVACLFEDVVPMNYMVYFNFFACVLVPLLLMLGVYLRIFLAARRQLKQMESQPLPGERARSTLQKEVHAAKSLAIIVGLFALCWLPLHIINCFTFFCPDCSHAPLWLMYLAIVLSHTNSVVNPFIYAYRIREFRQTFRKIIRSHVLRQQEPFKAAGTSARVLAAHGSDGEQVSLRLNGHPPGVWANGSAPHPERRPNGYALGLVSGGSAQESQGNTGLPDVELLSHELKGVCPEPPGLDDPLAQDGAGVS

[2] = biological target: T2, human A1 adenosine receptors (Homo sapiens, UniProt P30542); test: Displacement of [^3H]CHA binding, human A1 adenosine receptors in CHO cells (agonist radioligand)
T2 sequence (P30542 1-326): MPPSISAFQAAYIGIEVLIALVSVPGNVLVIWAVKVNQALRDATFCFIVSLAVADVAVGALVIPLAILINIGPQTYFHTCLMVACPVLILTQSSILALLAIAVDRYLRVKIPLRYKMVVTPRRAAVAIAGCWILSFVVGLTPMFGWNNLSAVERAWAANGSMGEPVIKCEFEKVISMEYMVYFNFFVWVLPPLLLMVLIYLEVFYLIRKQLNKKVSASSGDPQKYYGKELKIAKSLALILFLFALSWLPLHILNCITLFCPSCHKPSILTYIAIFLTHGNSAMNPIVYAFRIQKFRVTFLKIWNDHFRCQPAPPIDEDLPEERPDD

[3] = biological target: T3, human A3 adenosine receptors (Homo sapiens, UniProt P0DMS8); conditions: for A1/A3: ratio Ki(A1)/Ki(A3), agonist radioligands
T3 sequence (P0DMS8 1-318): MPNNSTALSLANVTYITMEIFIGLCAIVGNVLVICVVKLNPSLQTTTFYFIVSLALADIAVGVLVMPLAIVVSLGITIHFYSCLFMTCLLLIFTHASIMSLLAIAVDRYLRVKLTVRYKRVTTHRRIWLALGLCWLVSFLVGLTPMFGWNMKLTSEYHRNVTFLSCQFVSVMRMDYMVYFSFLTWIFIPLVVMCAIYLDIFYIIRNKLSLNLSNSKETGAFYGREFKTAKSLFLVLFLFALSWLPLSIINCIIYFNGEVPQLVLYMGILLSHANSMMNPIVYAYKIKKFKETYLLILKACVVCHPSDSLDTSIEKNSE

[4] = human A2A, CHO cells, [^3H]CGS21680

SMILES | melting point | other results
CCNC(=O)[C@H]1O[C@@H](n2cnc3c(NC(=O)Nc4ccc(S(=O)(=O)N(C)C(C)C)cc4)ncnc32)C(O)C1O (stereo partly drawn) [Compound 97, 1-Deoxy-1-[6-[[[[4-[N-(1-methylethyl)-N-(methyl)-aminosulfonyl]phenyl]amino]carbo-nyl]amino]-9H-purin-9-yl]-N-ethyl-β-D-ribofuranuronamide] | 140 °C | 
CCNC(=O)[C@H]1O[C@@H](n2cnc3c(NC(=O)Nc4ccc(S(=O)(=O)N(C)C)cc4)ncnc32)C(O)C1O (stereo partly drawn) [Compound 98, 1-Deoxy-1-[6-[[[[4-[N,N-(dimethyl)amino-sulfonyl]phenyl]amino]carbonyl]amino]-9H-purin-9-yl]-N-ethyl-β-D-ribofuranuronamide] | 176 °C | pKi [1, 4]: < 6.00; pKi [2]: 6.55
C=CCN(CC=C)S(=O)(=O)c1ccc(NC(=O)Nc2ncnc3c2ncn3[C@@H]2O[C@H](C(=O)NCC)[C@@H](O)[C@H]2O)cc1 [Compound 99, 1-Deoxy-1-[6-[[[[4-[N,N-bis(allyl)amino-sulfonyl]phenyl]amino]carbonyl]amino]-9H-purin-9-yl]-N-ethyl-β-D-ribofuranuronamide] | 126 °C | pKi [1, 4]: < 6.00; pKi [2]: 6.42; pKi [3]: 8.00; A1/A3 [3]: 38
CCNC(=O)[C@H]1O[C@@H](n2cnc3c(NC(=O)Nc4ccc(S(=O)(=O)N(CC)CC)cc4)ncnc32)[C@H](O)[C@@H]1O [Compound 100, 1-Deoxy-1-[6-[[[[4-[N,N-bis(ethyl)amino-sulfonyl]phenyl]amino]carbonyl]amino]-9H-purin-9-yl]-N-ethyl-β-D-ribofuranuronamide] | 168 °C | pKi [1, 4]: < 6.00
CCNC(=O)[C@H]1O[C@@H](n2cnc3c(NC(=O)Nc4ccc(S(=O)(=O)NC5C=CCC5)cc4)ncnc32)[C@H](O)[C@@H]1O (stereo partly shown) [Compound 101] |  | pKi [1]: < 6.00; pKi ([2]; read-out: Ki(A1). Displacement of [^3H]CHA binding to human A1 adenosine receptors exp. in CHO cells., human A1, CHO cells, [^3H]CHA, confidence limits in parentheses): 6.60; A1/A3 [3]: 13.16
CCCN(CCC)S(=O)(=O)c1ccc(NC(=O)Nc2ncnc3c2ncn3[C@@H]2O[C@H](C(=O)NCC)[C@@H](O)[C@H]2O)cc1 [Compound 102, 1-Deoxy-1-[6-[[[[4-[N,N-bis(propyl)aminosulfonyl]phenyl]amino]-carbo-nyl]amino]-9H-purin-9-yl]-N-ethyl-β-D-ribofuranuronamide] |  | pKi [1, 4]: < 6.00; pKi [2]: 6.46; pKi [3]: 7.85
CCNC(=O)[C@H]1O[C@@H](n2cnc3c(NC(=O)Nc4ccccc4S(=O)(=O)Nc4ccc(OC)cc4)ncnc32)C(O)C1O (stereo partly drawn) [Compound 103, 1-Deoxy-N-ethyl-1-[[6-[[[2-N-(4-methoxyphenyl)-sulfonamidophenyl]amino]carbonyl]amino]-9H-purin-9-yl]-b-D-ribofuran-uronamide] | 168 to 170 °C | 
CCCCCNS(=O)(=O)c1cccc(NC(=O)Nc2ncnc3c2ncn3[C@@H]2O[C@H](C(=O)NCC)C(O)C2O)c1 (stereo partly drawn) [Compound 104, 1-Deoxy-N-ethyl-1-[[6-[[[3-N-(pentyl)-sulfonamido-phenyl]amino]carbonyl]amino]-9H-purin-9-yl]-b-D-ribofuranuronamide] | 158 to 159 °C | 
CCNC(=O)[C@H]1O[C@@H](n2cnc3c(NC(=O)Nc4cccc(S(=O)(=O)Nc5ccc(OC)cc5)c4)ncnc32)C(O)C1O (stereo partly drawn) [Compound 105, 1-Deoxy-N-ethyl-1-[[6-[[[3-N-(4-methoxyphenyl)-sulfonamidophenyl]amino]carbonyl]amino]-9H-purin-9-yl]-b-D-ribofuran-uronamide] | 206 to 208 °C (dec.) | 
CCNC(=O)[C@H]1O[C@@H](n2cnc3c(NC(=O)Nc4ccccc4S(N)(=O)=O)ncnc32)C(O)C1O (stereo partly drawn) [Compound 106, 1-Deoxy-N-ethyl-1-[[6-[[(2-sulfonamidophenyl)amino]-carbonyl]amino]-9H-purin-9-yl]-b-D-ribofuranuronamide] | 188 to 189 °C | 
CCNC(=O)[C@H]1O[C@@H](n2cnc3c(NC(=O)Nc4ccccc4S(=O)(=O)N(C)C(C)C)ncnc32)C(O)C1O (stereo partly drawn) [Compound 107, 1-Deoxy-N-ethyl-1-[[6-[[[2-N-(isopropyl)-N-(methyl)-sulfonamidophenyl]amino]carbonyl]amino]-9H-purin-9-yl]-b-D-ribofuranuron-amide] | 142 to 144 °C | 
CCCCCNS(=O)(=O)c1ccccc1NC(=O)Nc1ncnc2c1ncn2[C@@H]1O[C@H](C(=O)NCC)C(O)C1O (stereo partly drawn) [Compound 108, 1-Deoxy-N-ethyl-1-[[6-[[[2-N-(pentyl)-sulfonamido-phenyl]amino]carbonyl]amino]-9H-purin-9-yl]-b-D-ribofuranuronamide] | 155 to 157 °C | 
CCNC(=O)[C@H]1O[C@@H](n2cnc3c(NC(=O)Nc4ccccc4S(=O)(=O)NC45C[C@H]6C[C@@H](C4)C[C@@H](C5)C6)ncnc32)C(O)C1O (stereo partly drawn) [Compound 109, 1-Deoxy-N-ethyl-1-[[6-[[[2-N-(adamantan-1-yl)-sulfonamidophenyl]amino]carbonyl]amino]-9H-purin-9-yl]-b-D-ribofuran-uronamide] | 159 to 161 °C | 
CCNC(=O)[C@H]1O[C@@H](n2cnc3c(NC(=O)Nc4ccccc4S(=O)(=O)N4CC=CC4)ncnc32)C(O)C1O (stereo partly drawn) [Compound 110, 1-Deoxy-N-ethyl-1-[[6-[[[2-(2,5-dihydropyrrol-1-yl)sulfonylphenyl]amino]carbonyl]amino]-9H-purin-9-yl]-b-D-ribofuranuronamide] | 149 to 151 °C | 
CCNC(=O)[C@H]1O[C@@H](n2cnc3c(NC(=O)Nc4cccc(S(=O)(=O)N(C)C(C)C)c4)ncnc32)C(O)C1O (stereo partly drawn) [Compound 112, 1-Deoxy-N-ethyl-1-[[6-[[[3-N-(isopropyl)-N-(methyl)-sulfonamidophenyl]amino]carbonyl]amino]-9H-purin-9-yl]-b-D-ribofuranuron-amide] | 147 to 148 °C | 
CCNC(=O)[C@H]1O[C@@H](n2cnc3c(NC(=O)Nc4cccc(S(=O)(=O)NC56C[C@H]7C[C@@H](C5)C[C@@H](C6)C7)c4)ncnc32)C(O)C1O (stereo partly drawn) [Compound 113, 1-Deoxy-N-ethyl-1-[[6-[[[3-N-(adamantan-1-yl)-sulfonamidophenyl]amino]carbonyl]amino]-9H-purin-9-yl]-b-D-ribofuran-uronamide] | 188 to 189 °C | 
CCNC(=O)[C@H]1O[C@@H](n2cnc3c(NC(=O)Nc4cccc(S(=O)(=O)N5CC=CC5)c4)ncnc32)C(O)C1O (stereo partly drawn) [Compound 114, 1-Deoxy-N-ethyl-1-[[6-[[[3-(2,5-dihydropyrrol-1-yl)sulfonylphenyl]amino]carbonyl]amino]-9H-purin-9-yl]-b-D-ribofuranuronamide] | 145 to 146 °C | 
